Test results from article PMC10059057, “Antileishmanial and Antiplasmodial Activities of Secondary Metabolites from the Root of Antrocaryon klaineanum Pierre (Anacardiaceae)” (Molecules, 2023).
≈ marks a conversion by molar mass, not a printed value. Where two headings read alike, the source gives them in different places.

Assays:
[1] = In vitro cytotoxicity assay (resazurin) on Raw 264.7 macrophage cells; type: cell-based, murine; settings: mouse
Description: RAW 264.7 cells were obtained from RIKEN BioResource Centre Cell Bank (Tsukuba, Japan) and cultured in Dulbecco’s modified Eagle medium (DMEM) containing 1% penicillin–streptomycin and 10% FBS under 5% CO2 and humidified atmosphere at 37 °C and sub-cultured every 72 h.
(§1) A stock solution was prepared at 100 mg/mL for each extract and fraction and at 50 mg/mL for isolated compound in 100% DMSO (Sigma–Aldrich, Munich, Germany). Master plates were then prepared by mixing 2 μL of each stock solution with 198 μL of fresh incomplete RPMI 1 640 culture medium to yield a concentration of 1 mg/mL for extract and fraction and of 0.5 mg/mL (1% DMSO) followed by a 5-fold serial dilution. Extracts and fractions were tested at concentrations ranging from 0.16 to 100 μg/mL, and isolated compounds at concentrations ranging from 0.08 to 50 μg/mL.
The murine macrophages, Raw 264.7 cells were grown in a T-25 cm^2 flask containing the complete Dulbecco’s modified Eagle’s medium (Sigma–Aldrich, Munich, Germany) supplemented with 10% FBS (Sigma–Aldrich, Munich, Germany), 1% non-essential amino acids, and 1% (v/v) penicillin–streptomycin (Sigma–Aldrich, Munich, Germany) and incubated at 37° in a humidified atmosphere containing 5% CO2. For the experiments, 80–90% confluent cell culture was trypsinized, counted using a Neubauer haemacytometer, and seeded into a 96-well cell culture treated flat-bottomed plate (SARSTEDT, Inc. Newton, NC 28658, USA) at a cell density of 10^4 cells/well. Plates were incubated overnight to allow cell adhesion. Cells were then treated with serially diluted concentrations of crude extract, fractions, and isolated compounds for 48 h. Podophyllotoxin (Sigma–Aldrich, Munich, Germany) was used as positive control with the highest concentration of 10 μM. Afterwards, 10 μL of resazurin solution (0.15 mg/mL prepared in PBS) was added to each well, and the plates were additionally incubated for 4 h. Of important note, resazurin is a nonfluorescent, nontoxic, and cell-permeable blue dye which is used to quantify cell viability following its conversion into the highly fluorescent pink dye resorufin in response to changes in the reducing environment within the cytosol of the cell. The level of fluorescence that positively correlates with cell viability was measured using a Magellan Infinite M200 plate reader (Tecan, Germany) at an excitation wavelength of 530 nm and an emission wavelength of 590 nm. The growth proliferation percentage of cells was calculated with respect to the negative control. The concentration–response curves were plotted using inhibitory percentages versus the logarithm of the drug concentration to determine the concentration of drug that reduces cell viability by 50% (CC50) using GraphPad Prism 8.0 software. Selectivity indices (SI) [SI = CC50/IC50] were determined for each inhibitor based on their antiparasitic activity (IC50) and cell cytotoxicity (CC50 on Raw cells). Samples with SI greater than 10 were classified as poorly toxic toward Raw cells.

[2] = system: L. donovani promastigotes 1S (MHOM/SD/62/1S); assay: Antileishmanial resazurin fluorimetric assay on promastigotes; type: cell-based, Leishmania donovani; settings: for IC50: Leishmania donovani
Description: (§2) The cryopreserved chloroquine-sensitive (Pf3D7-(MRA-102)), the multi-resistant (PfDd2) of Plasmodium falciparum, and the promastigote form of Leishmania donovani strains were obtained from BEI Resources (https://www.beiresources.org/ (accessed on 16 February 2019)) and are routinely cultured at the Antimicrobial and Biocontrol Agents Unit, University of Yaoundé I.
Leishmania donovani promastiogtes were cultured in Medium 199 (Sigma, Darmstadt, Germany) supplemented with 10% Heat-Inactivated fetal Bovine Serum (HIFBS) (Sigma, Darmstadt, Germany) and 100 IU/mL penicillin/streptomycin. The culture was maintained in 75 cm^2 cell culture flask at 28 °C and sub-cultured every 72 h.
as §1
The antileishmanial activity of crude extracts, derived fractions, and isolated compounds against cultured L. donovani promastigotes was evaluated using the resazurin fluorimetric assay as described by Siqueira-Neto et al. (2010). Briefly, promastigotes from a logarithmic phase culture (4 × 10^5 cells/mL; 90 μL) were seeded in 96-well microplates and treated with 10 μL of inhibitors at different triplicate concentrations (100 µg/mL–0.16 µg/mL for extract/fractions and 50 µg/mL–0.08 µg/mL for compounds). Plates were incubated for 28 h at 28 °C, followed by the addition of […] resazurin (0.15 mg/mL in DPBS; Sigma, Darmstadt, Germany). The negative and positive controls were, respectively, 0.1% DMSO and amphotericin B (Sigma, Darmstadt, Germany) (10–0.016 μg/mL) treated wells. After an additional incubation for 44 h, plates were then read on a Magelan Infinite M200 fluorescence plate reader (Tecan, Männedorf, Switzerland) at excitation and emission wavelengths of 530 and 590 nm, respectively. For each sample, growth inhibition percentages were calculated with Microsoft Excel Software; then, from the nonlinear regression fit, concentration–response curves were generated to deduce the median inhibitory concentration (IC50) using the GraphPad Prism 8.0 software.

[3] = system: P. falciparum chloroquine-sensitive (Pf3D7); assay: Antiplasmodial SYBR green I based fluorescence assay, chloroquine-sensitive strain; type: cell-based; settings: Plasmodium falciparum, read-out: Pf3D7 IC50 ± SD
From the text: as §2
(§3) Plasmodium falciparum strains were maintained in 60 mm sterile petri dishes containing complete RPMI 1640 medium [RPMI 1640 (Sigma Aldrich) supplemented with 0.2% sodium bicarbonate (Sigma Aldrich), 0.5% Albumax II (Gibco), 1% hypoxanthine 100X (Gibco, Billings, MT, USA), 25 mM HEPES, and 0.04% gentamicin (Sigma Aldrich)] with fresh O^+ erythrocytes of healthy human volunteers suspended at 4% haematocrit (v/v) and incubated at 37 °C in a 5% CO2 humidified atmosphere. The medium was replaced daily with fresh complete medium to propagate the culture. Ten percent (10%) Giemsa-stained thin blood smears were examined microscopically under immersion oil to monitor cell-cycle transition and parasitaemia.
as §1
(§4) The use of mixed-stage cultures can enable the test molecules to interact with all the three stages (ring, trophozoite, and schizont) found during a 48-h life cycle of P. falciparum in culture. Moreover, starting the experiment with a synchronized ring stage culture provides the advantage of monitoring the growth inhibitory effect of test samples without a rise-up in parasitemia during the ring–trophozoite–schizont transitions. For this particular reason, parasites were synchronized at the ring stage by serial treatment with 5 % sorbitol for two days prior to each experiment with respect to Lambros and Vanderberg, 1979 [44] protocol.
(§5) Drug sensitivity assay was carried out in 96-well microtitration plates using the SYBR green I based fluorescence assay (Smilkstein et al., 2004). […] The fact that human red blood host cells are anucleate allows the use of SYBR green for the proper monitoring of the growth of the malarial parasite.
(§6) The 96 wells flat-bottom assay plates with sorbitol-synchronized ring stage parasites (haematocrit: 1%, parasitaemia: 2%, 90 μL) were incubated in the presence of 10 µL of pre-diluted extracts, fractions, isolated compounds, and reference drugs [Chloroquine and Artemisinin (Sigma–Aldrich, Munich, Germany)] at different triplicate concentrations (100 µg/mL–0.16 µg/mL for extract/fractions and 50 µg/mL–0.08 µg/mL for compounds). After an incubation period of 72 h at 37 °C, 100 μL of the SYBR Green I solution prepared in a lysis buffer (0.2 µL of 10,000× SYBR Green I per mL of lysis buffer) consisting of Tris (20 mM; pH 7.5), EDTA (5 mM), saponin (0.008%; m/v), and Triton X-100 (0.08%; v/v) was added to each well, mixed twice gently with a multi-channel pipette, and incubated in the dark at 37 °C for 1 h. Fluorescence was measured using the microplate reader Infinite M200 (Tecan) at an excitation and emission wavelength of 485 and 538 nm, respectively. […] The data analysis was performed with GraphPad Prism 8.0 software, fitting by nonlinear regression, and concentration–response curves were generated to determine the median inhibitory concentration (IC50) for each sample.

[4] = system: P. falciparum chloroquine-resistant (PfDd2); assay: Antiplasmodial SYBR green I based fluorescence assay, chloroquine-resistant strain; type: cell-based; settings: Plasmodium falciparum, read-out: PfDd2 IC50 ± SD
From the text: as §2, §3, §1, §4, §5, §6
The resistance index (RI) was determined as the ratio of the IC50 of the samples on the multi-resistant strain Dd2 and the IC50 on the chloroquine-sensitive strain 3D7 as reported by Douanla et al..

PfDd2 = system: PfDd2; set-up: method as in PMID 34187456; settings: from Hymenostegia afzelii and Endodesmia calophylloides; read-out: IC50 against PfDd2; cited from earlier work
Pf 3D7 = system: Pf 3D7; set-up: method as in PMID 34187456; settings: from Hymenostegia afzelii and Endodesmia calophylloides; read-out: IC50 against Pf 3D7; cited from earlier work
Leishmania donovani [5] = system: Leishmania donovani; set-up: method as in PMID 24802987, PMID 36399160; settings: cited from earlier work
Leishmania donovani [6] = system: Leishmania donovani; set-up: method as in PMID 24802987, PMID 36399160; settings: cited from earlier work; remark: listed apart in the source
leishmania promastigotes = system: leishmania promastigotes; set-up: method as in PMID 31085212; settings: β-sitosterol from Ifloga spicata; cited from earlier work
[7] = promastigotes, resazurin assay, read-out: L. donovani Promastigote IC50 ± SD
[8] = chloroquine-sensitive strain 3D7, 72 h
[9] = chloroquine-resistant strain Dd2, 72 h
[10] = Raw 264.7 macrophages, 48 h treatment, resazurin, read-out: Cytotoxicity Raw Cells CC50 ± SD
[11] = read-out: L. donovani Promastigote IC50 ± SD, promastigotes, resazurin assay

| Compound | CC50 at 48 h [1] [µg/mL] | IC50 [2, 7] [µg/mL] | IC50 [3, 8] [µg/mL] | IC50 [4, 9] [µg/mL] | IC50 ([3]; 3D7, 72 h) | IC50 ([4]; DD2, 72 h) | further results |
| --- | --- | --- | --- | --- | --- | --- | --- |
| COc1c(O)cc2c(=O)oc3c(OC)c(O)cc4c(=O)oc1c2c34 [3,3′-Dimethylellagic acid (4), 3,3′-dimethylellagic acid] | > 500 | 8.07 ± 0.9 (≈ 24.4 µM) | > 50 | > 50 |  |  | IC50 (PfDd2): 1360 nM; IC50 (Pf 3D7): 4270 nM |
| C[C@@H]1[C@H](O)[C@@H](C)/C=C/C=C/C=C/C=C/C=C/C=C/C=C/[C@H](O[C@@H]2O[C@H](C)[C@@H](O)[C@H](N)[C@@H]2O)C[C@@H]2O[C@](O)(C[C@@H](O)C[C@@H](O)[C@H](O)CC[C@@H](O)C[C@@H](O)CC(=O)O[C@H]1C)C[C@H](O)[C@H]2C(=O)O [Amphotericin B, amphotericin B, reference compound] |  | 2.9 ± 0.46 (≈ 3.14 µM) |  |  |  |  |  |
| CCCCCCCC=CCCCCCCCCCCCCCC(O)C(O)C(COC1OC(CO)C(O)C(O)C1O)NC(=O)C(O)CCCCCCCCCCCCCC [Antroklaicerebroside (1), (2S,3S,4R,2′R,18E)N-((-3,4-dihydroxy-β-D-gluco-pyranosyl)oxy)hexacos-18-en-2-yl)-2-hydroxyhexadecanamide] | > 500 | 6.19 ± 0.79 (≈ 7.33 µM) | 42.04 ± 0.08 | > 50 |  |  | melting point: 184 to 186 °C |
| C[C@@H]1CC[C@H]2[C@@H](C)C(=O)O[C@@H]3O[C@@]4(C)CC[C@@H]1[C@]32OO4 [Artemesin, Artemisinin, reference compound] |  |  |  |  |  |  | IC50 ([3]; chloroquine-sensitive strain 3D7, 72 h, reference drugs in µM): 0.02 µM; IC50 ([4]; chloroquine-resistant strain Dd2, 72 h, reference drugs in µM): 23.7 ± 0.24 µM |
| CCN(CC)CCCC(C)Nc1ccnc2cc(Cl)ccc12 (stereo not drawn) [Chloroquine, reference compound] |  |  |  |  | 0.85 ± 0.01 µM | 21.7 ± 0.25 µM |  |
| O=c1ccc2cc(O)c(O)cc2o1 [Esculetin (2), 6,7-dihydroxycoumarin] | > 500 | > 50 | 45.57 ± 0.08 | 9.3 ± 0.29 |  |  |  |
| COc1cc([C@@H]2c3cc4c(cc3[C@H](O)[C@H]3COC(=O)[C@H]23)OCO4)cc(OC)c1OC [Podophyllotoxin, reference compound] |  |  |  |  |  |  | CC50 at 48 h ([1]; Raw 264.7 macrophages, positive control, unit µM, read-out: Cytotoxicity Raw Cells CC50 ± SD): 0.71 ± 0.2 µM |
| CC[C@H](/C=C/[C@@H](C)[C@H]1CC[C@H]2[C@@H]3CC=C4C[C@@H](O)CC[C@]4(C)[C@H]3CC[C@]12C)C(C)C [Stigmasterol (6), stigmasterol] |  |  |  |  | > 50 µg/mL | > 50 µg/mL | CC50 at 48 h [1, 10]: > 500 µg/mL; IC50 [2, 11]: 8.07 ± 0.9 µg/mL (≈ 19.6 µM); L. donovani Promastigote IC50 ± SD ([2]; promastigotes, resazurin assay): 9.14 ± 0.96 µg/mL |
| O=c1oc2c(O)c(O)cc3c(=O)oc4c(O)c(O)cc1c4c23 [ellagic acid] |  |  |  |  |  |  | parasitemia in in vivo antileishmanial mouse model (Leishmania donovani [5]): significatively reduced parasitemia; in vitro effect against Leishmania donovani (Leishmania donovani [6]): exhibited an in vitro effect |
| CC[C@H](CC[C@@H](C)[C@H]1CC[C@H]2[C@@H]3CC=C4C[C@@H](O)CC[C@]4(C)[C@H]3CC[C@]12C)C(C)C [β-sitosterol (5), β-sitosterol] |  |  |  |  | 45.3 ± 1.66 µg/mL | > 50 µg/mL | CC50 at 48 h [1, 10]: > 500 µg/mL; IC50 [2, 11]: 5.56 ± 0.74 µg/mL (≈ 13.4 µM); IC50 against leishmania promastigotes (leishmania promastigotes): 9.2 ± 0.06 µg/mL (≈ 22.2 µM) |
